Assays:
C1b domain of human PKCε = biological target: T1, C1b domain of human PKCε (Homo sapiens, UniProt Q02156); test: Competitive 3H-PDBu binding to C1b domain of PKCε
T1 construct: Genes encoding C1b domains of human PKCα, δ, ε, θ, and PKD1 (PKCμ) were synthesized; made in house; host or cells: E. coli BL21(DE3)
Protocol: (§1) Compounds described in this disclosure were tested for binding affinity to C1b domain of PKC isoforms. Compound binding affinity to C1b domain of PKC isoforms was derived from competitive binding assay using radioactive tracer ^3H-PDBu and recombinant GST-C1b or full-length of human PKC proteins based on modified procedures from Methods in Molecular Biology, vol.
(§2) Genes encoding C1b domains of human PKCα, δ, ε, θ, and PKD1 (PKCμ) were synthesized and inserted into pGEX-2TK or pGEX-4T1 vectors for expression and production of GST-C1b proteins in E. coli BL21(DE3) via IPTG induction. The target proteins were purified by glutathione sepharose 4B and followed by ion exchange chromatography if needed to achieve purity >70%. Aliquots of the purified proteins were stored at −80 degree for binding assay (storage buffer: 20 mM Tris pH 8.0, 200 mM NaCl, 10% glycerol, 1 mM DTT).
(§3) The plate was incubated at 37° C. on a shaker at 300 rpm for 10 minutes and then put on ice for 20 minutes. […] The bottom of the filter plate was sealed and 50 μL of MicroScint-20 (PerkinElmer) cocktail was added to each well. ^3H-PDBu trapped in each well was counted using PerkinElmer MicroBeta2 Reader. Data were analyzed using GraphPad Prism5 with the model “log(inhibitor) vs. response-variable slope” to fit the IC50, and then IC50 was transformed to Ki using Cheng-Prusoff equation: Ki=IC50/(1+added radio ligand/Kd). Kd is the binding affinity of each protein preparation to ^3H-PDBu, determined experimentally.

[1] = test system: Namalwa (Lymphoma) cell line; test: Proliferation of Namalwa; format: cell-based; conditions: for ratio of (IC50 of K01)/(IC50 of compound), Namalwa: value in parenthesis; for IC50: read-out: IC50 in μM Namalwa (Lymphoma)
Protocol: (§4) The diterpenoid compounds were tested in A549, a non-small cell lung cancer cell line harboring a K-Ras activating mutation. Briefly, A549 cells at a density of 1,000 cells/well were seeded in 96-well plates and incubated at 37° C. for 24 hours. A series of different concentrations of compound stocks (500×) were prepared by 3-fold serial dilution in DMSO. These compounds were further diluted in culture media and then added to cells so that the final DMSO concentration was not exceeding 0.25%. After 96 hours of incubation, 50 μL of CellTiter Glo reagent (Promega) was added to each well and luminescence was measured after 10 minutes using EnVision (PerkinElmer). Luminescence from cells treated with DMSO alone was set as Max and % of inhibition was calculated as follows: Inhibition %=(Max−Sample value)/Max×100. Data was analyzed using XL-fit software (ID Business Solutions Ltd.) and IC50, relative IC50, and % of top inhibition was calculated. Some of the compounds in this disclosure were very potent in blocking proliferation of A549 lung cancer cells at low nM range. In addition, potency of inhibiting A549 proliferation correlated well with its binding affinity to PKCs for this series of compounds. In other words, higher affinity binders had stronger inhibitory effects on A549 proliferation. This further support the notion that activation, rather than inhibition, of certain PKC isoforms is required to block proliferation of cancer cells, some of which may harbor K-Ras mutations. This is in sharp contrast to previous literature and common belief that inhibition of PKC is necessary to block cancer cell growth (Kang, 2014, New Journal of Science, 2014:1-36). Data presented here is in agreement with recent findings that many loss-of-function but not gain-of-function mutations of PKC isoforms have been identified in many human cancers (Antal et al., 2015, Cell, 160:489-502).
(§5) The compounds in this disclosure were tested for their potency in blocking proliferation of a few other cancer cells lines, including K-Ras mutant pancreatic cell lines Panc2.13 and KP-4, leukemia cell line HL-60, and lymphoma cell lines Namalwa and Mino. Similar procedures as in Example 67 were followed. Initial cell numbers seeded in 96-well plates were different for different cell lines: 3000 cells/well for Panc2.13; 800-1000 cells/well for KP-4; 5000 cells/well for HL-60; 5000-10000 cells/well for Namalwa and Mino. A ratio ratio of (IC50 of K01)/(IC50 of compound) (data in parenthesis in Table 5) was used to normalize the compound potency from different assay batches to a common comparator […].

C1b domain of human PKCα = biological target: T2, C1b domain of human PKCα (Homo sapiens, UniProt P17252); test: biochemical; format: binding; conditions: 3H-PDBu competition; for Ki: Ki PKCα
T2 construct: Genes encoding C1b domains of human PKCα, δ, ε, θ, and PKD1 (PKCμ) were synthesized; made in house; host or cells: E. coli BL21(DE3)
In short: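 Competitive binding against 3H-PDBu tracer used recombinant GST-C1b fusion protein expressed in E. coli. Incubation ran 10 min at 37°C with shaking, then 20 min on ice, followed by filtration and scintillation counting of trapped 3H-PDBu. Affinity was derived using each protein preparation's experimentally determined Kd for 3H-PDBu.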

[2] = test system: Panc2.13 (Pancreatic) cell line; test: Proliferation of Panc2.13; format: cell-based; conditions: for ratio of (IC50 of K01)/(IC50 of compound), Panc2.13: value in parenthesis; for IC50: read-out: IC50 in μM Panc2.13 (Pancreatic)
Protocol: as §4, §5

[3] = test system: HL-60 (Leukemia) cell line; test: Proliferation of HL-60; format: cell-based; conditions: for ratio of (IC50 of K01)/(IC50 of compound), HL-60: value in parenthesis; for IC50: Homo sapiens, HL-60, read-out: IC50 in μM HL-60 (Leukemia)
Protocol: as §4, §5

[4] = test system: A549 non-small cell lung cancer cell line; test: Proliferation of A549 (CellTiter Glo); format: cell-based; conditions: Homo sapiens, A549, 96 h, read-out: IC50 μM (A549 Cell Line)
In short: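 Luminescent CellTiter Glo read-out after 96 h compound exposure of A549 cells plated at 1,000/well and rested 24 h at 37° C; DMSO kept ≤0.25%, dilutions 3-fold. Inhibition taken relative to DMSO-treated wells; IC50, relative IC50 and top inhibition derived by curve fitting.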

[5] = test system: Mino (Lymphoma) cell line; test: Proliferation of Mino; format: cell-based; conditions: for IC50: Homo sapiens, MINO, read-out: IC50 in μM Mino (Lymphoma); for ratio of (IC50 of K01)/(IC50 of compound), Mino: value in parenthesis
Protocol: as §4, §5

C1b domain of human PKCδ = biological target: T3, C1b domain of human PKCδ (Homo sapiens, UniProt Q05655); test: Competitive 3H-PDBu binding to C1b domain of PKCδ; conditions: Ki PKCδ, 3H-PDBu competition
T3 construct: Genes encoding C1b domains of human PKCα, δ, ε, θ, and PKD1 (PKCμ) were synthesized; made in house; host or cells: E. coli BL21(DE3)
T3 sequence (Q05655 230-280 limits assumed): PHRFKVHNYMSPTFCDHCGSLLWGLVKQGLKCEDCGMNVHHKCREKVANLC
In short: (§6)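 GST-C1b (human, E. coli-expressed) + 3H-PDBu + compound; 37° C 10 min shaking, then ice 20 min. Filter capture, scintillation count. IC50 → Ki via Cheng-Prusoff, per-prep measured Kd.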

C1b domain of human PKCθ = biological target: T4, C1b domain of human PKCθ (Homo sapiens, UniProt Q04759); test: Competitive 3H-PDBu binding to C1b domain of PKCθ
T4 construct: Genes encoding C1b domains of human PKCα, δ, ε, θ, and PKD1 (PKCμ) were synthesized; made in house; host or cells: E. coli BL21(DE3)
T4 sequence (Q04759 231-281 limits assumed): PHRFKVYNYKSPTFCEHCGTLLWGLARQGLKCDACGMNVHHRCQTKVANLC
Protocol: as §1, §2, §3

[6] = biological target: T5, C1b domain of human PKD1 (PKCμ) (Homo sapiens, UniProt Q15139); test: biochemical; format: binding
T5 construct: Genes encoding C1b domains of human PKCα, δ, ε, θ, and PKD1 (PKCμ) were synthesized; made in house; host or cells: E. coli BL21(DE3)
T5 sequence (Q15139 270-320 limits assumed): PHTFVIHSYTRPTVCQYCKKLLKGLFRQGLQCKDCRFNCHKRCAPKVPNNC
In short: as §6

[7] = test system: KP-4 (Pancreatic) cell line; test: Proliferation of KP-4; format: cell-based; conditions: Homo sapiens, KP-4, read-out: IC50 in μM KP-4 (Pancreatic)
Protocol: as §4, §5

T1 sequence (Q02156 242-292 limits assumed): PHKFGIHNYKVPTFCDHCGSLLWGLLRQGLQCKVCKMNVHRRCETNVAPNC

Row | SMILES | Ki (C1b domain of human PKCε) | ratio of (IC50 of K01)/(IC50 of compound), Namalwa [1] | IC50 [1] | Ki (C1b domain of human PKCα) | ratio of (IC50 of K01)/(IC50 of compound), Panc2.13 [2] | IC50 [2] | ratio of (IC50 of K01)/(IC50 of compound), HL-60 [3] | IC50 [3] | IC50 [4] | IC50 [5] | ratio of (IC50 of K01)/(IC50 of compound), Mino [5] | Ki (C1b domain of human PKCδ) | Ki (C1b domain of human PKCθ) | Ki [6] | IC50 [7] | Ki PKCα (C1b domain of human PKCα)
1 | CC1=C[C@H]2[C@@]3(O)[C@H](C)C[C@]4(OC(=O)[C@@H](N)CCc5ccccc5)[C@H]([C@@H]3C=C(CO)C[C@]2(O)C1=O)C4(C)C [Compound K101-C1318] | 30 to 60 nM | 0.93 | 0.06 to 0.1 µM | 100 to 200 nM | 4.28 | 0.2 to 0.6 µM | 3.21 | 0.1 to 0.2 µM | 0.1 to 0.2 µM | 0.01 to 0.03 µM | 3.18 | 5 to 10 nM | 1 to 30 nM | < 5 nM | 0.1 to 0.2 µM | –
2 | CC1=C[C@H]2[C@@]3(O)[C@H](C)C[C@]4(OC(=O)[C@@H](N)C(C)(C)c5ccc(C(F)(F)F)cc5)[C@H]([C@@H]3C=C(CO)C[C@]2(O)C1=O)C4(C)C [Compound K101-C134902] | 1 to 30 nM | 3.5 | 0.01 to 0.03 µM | 30 to 60 nM | – | – | 12 | 0.01 to 0.03 µM | 0.03 to 0.06 µM | 0.001 to 0.01 µM | 15.7 | < 5 nM | 5 to 10 nM | < 5 nM | – | –
3 | CC1=C[C@H]2[C@@]3(O)[C@H](C)C[C@]4(OC(=O)CCCc5ccccc5)[C@H]([C@@H]3C=C(CO)C[C@]2(O)C1=O)C4(C)C [Compound K101-C1324] | < 5 nM | 8.63 | 0.001 to 0.01 µM | 100 to 200 nM | – | – | 32.7 | 0.01 to 0.03 µM | 0.01 to 0.03 µM | 0.001 to 0.01 µM | 37.5 | < 5 nM | < 5 nM | < 5 nM | – | –
4 | CC/C=C\C/C=C\C/C=C\C/C=C\C/C=C\C/C=C\CCC(=O)O[C@@]12C[C@@H](C)[C@@]3(O)[C@@H](C=C(CO)C[C@]4(O)C(=O)C(C)=C[C@@H]34)[C@@H]1C2(C)C [Compound K101-C1333] | 1 to 30 nM | 20.9 | 0.001 to 0.01 µM | – | 157 | 0.001 to 0.01 µM | 80 | 0.001 to 0.01 µM | 0.001 to 0.01 µM | < 0.001 µM | 82.5 | < 5 nM | < 5 nM | < 5 nM | 0.001 to 0.01 µM | E (E=>60 nM and ≤10 nM)
5 | CC1=C[C@H]2[C@@]3(O)[C@H](C)C[C@]4(OC(=O)[C@@H](N)Cc5ccc(C(F)(F)F)cc5)[C@H]([C@@H]3C=C(CO)C[C@]2(O)C1=O)C4(C)C [Compound K101-C1342] | – | 1.68 | 0.03 to 0.06 µM | 100 to 200 nM | 6.79 | 0.1 to 0.2 µM | 6.43 | 0.03 to 0.06 µM | 0.06 to 0.1 µM | 0.01 to 0.03 µM | 6.2 | 5 to 10 nM | – | < 5 nM | 0.06 to 0.1 µM | –
6 | CC1=C[C@H]2[C@@]3(O)[C@H](C)C[C@]4(OC(=O)CCc5ccc(C(F)(F)F)cc5)[C@H]([C@@H]3C=C(CO)C[C@]2(O)C1=O)C4(C)C [Compound K101-C1302] | < 5 nM | 13.8 | 0.001 to 0.01 µM | 30 to 60 nM | – | – | 72 | 0.001 to 0.01 µM | 0.01 to 0.03 µM | < 0.001 µM | 75 | < 5 nM | < 5 nM | < 5 nM | – | –
